# Experimental data: US8133880B2, “Purine derivatives and methods of use thereof” (Inotek Pharmaceuticals Corporation, priority 2004, dated 2012)
# Tests used:
# Type in all cases: in vivo
# BALB/c mice [1] = assay: LPS-induced chemokine and cytokine response (serum TNF-α, MIP-1α by ELISA); conditions: for Serum TNF-α mean / Serum MIP-1α mean: serum ninety minutes after LPS
# Method: (§1) Male BALB/c mice were intraperitoneally administered Compound 54 (at a dose of either 0.3 mg/kg or 1.0 mg/kg) over a 30-minute period. Lipopolysaccharide (LPS) was then administered intraperitoneally at a dose of 1 mg/kg. Ninety minutes after LPS administration, serum was collected and the levels of MIP-1α and TNF-α were analyzed using specific ELISA.
# as §1, with “34” for “54”, “0.03” for “either 0.3”, “0.1” for “1.0”, “30 minute” for “30-minute”
# BALB/c mice [2] = assay: Asthma-associated inflammation: OVA aerosol exposure and bronchioalveolar lavage
# Method: Four-week old male, viral-antibody-free BALB/c mice (Jackson Laboratory, Bar Harbor, Me.) were intraperitoneally immunized with 10 μg ovalbumin (“OVA,” Grade III, Sigma Chemical Co., St. Louis, Mo.) and 1 mg alum (diluted from 2% Alhydrogel; Accurate Sci. Corp., Westbury, N.Y.) in 0.5 mL phosphate-buffered saline (“PBS”) on days 0 and 7. Control mice received 1 mg alum in PBS solution on days 0 and 7.
# On day 14, both immunized mice and control mice received a single aerosol exposure to 3% OVA (in PBS) for 30 minutes, followed by intraperitoneal administration of Compound 34 (5 μg per mouse in 0.2 mL buffer solution). About 18 hours after treatment, the mice were sacrificed and bronchioalveolar lavage (“BAL”) was performed on their lungs. The fluid obtained from the mice via the BAL procedure was analyzed and the inflammatory cell counts and level of inflammatory mediators in the fluid samples was measured as described in Virag et al., Med. Sci. Monit. 10:BR77-83 (2004).
# On day 14, both immunized mice and control mice received a single aerosol exposure to 3% OVA (in PBS) for 30 minutes, followed by intraperitoneal administration of Compound 24 (5 μg per mouse in 0.2 mL buffer solution). About 18 hours after treatment, the mice were sacrificed and bronchioalveolar lavage (“BAL”) was performed on their lungs. The fluid obtained from the mice via the BAL procedure was analyzed and the inflammatory cell counts and level of inflammatory mediators in the fluid samples was measured as described in Virag et al., Med. Sci. Monit. 10:BR77-83 (2004).
# mice = assay: TPA-induced dermatitis of the ear (ear weight, MPO); conditions: for Right ear (treated) Mean Weight: 10 μL topical, biopsy six hours after application, normal saline 20.2; for Right ear (treated) MPO: ear biopsy six hours after application, normal saline 18.4; for Difference (right minus left ear weight): normal saline 10.1; for Difference (MPO right minus left ear): normal saline 16.8; for Left ear (untreated) MPO / Left ear (untreated) Mean Weight: left ear DMSO vehicle only
# Method: Dermatitis was induced in the right ear of unanesthetized mice via the topical application of 12-O-tetradecanoylphorbol-13-acetate (TPA) (10 μL, 1% in DMSO) on both the inner and outer surfaces of the right ear. The left ear of each mouse had only vehicle (DMSO, 10 μL) topically applied on both the inner and outer surfaces.
# Immediately after application of TPA, the mice were topically treated on the inner and outer surfaces of their right ear only with either: (1) Compound 43 (10 μL, 0.1% in normal saline), (2) Compound 43 (10 μL, 0.3% in normal saline), or (3) normal saline (10 μL).
# Six hours after the application of Compound 43 or normal saline, the animals were euthanized using CO2 asphyxiation and a ¼ inch biopsy of both the left and right ear was taken and weighed. The biopsy samples were then analyzed for myloperoxidase (MPO) activity as a marker of neutrophil infiltration using standard methods.
# Swiss Webster mice = assay: Dextran sodium sulfate-induced colitis; conditions: for visual score (1-4) of colon damage: 1 = no damage, 4 = extensive damage, vehicle 2; for Colon Length: twice daily by gavage, seven days with DSS, vehicle 3.97; for MDA / MPO: colon biopsy; for MDA: vehicle 8.7; for MPO: vehicle 209
# Method: Colitis was induced in Swiss Webster mice by administration of dextran sodium sulfate (DSS) (5%, dissolved in distilled water, molecular weight 30-40 kDa) ad libitum for a total period of seven days. During this seven-day period, and concomitant with the administration of DSS, the mice were separately administered Compound 54 twice daily by gavage at a total daily dose of 0.1 mg/kg/day, 0.3 mg/kg/day or 1 mg/kg/day. At the end of the seventh day of administration of both DSS and Compound 54, the mice were euthanized and their colon was removed, measured, visually analyzed and colon biopsy samples were analyzed for malondialdehyde (MDA) and myeloperoxidase (MPO) levels.
# [3] = 5 μg per mouse i.p., BAL fluid about 18 hours after treatment
# [4] = animals given 0.1% on the right ear
# [5] = animals given 0.3% on the right ear
structure (smiles),measurement,setting,value
CCNC(=O)[C@H]1O[C@@H](n2cnc3c(N)nc(N/N=C/C4CCC=CO4)nc32)[C@H](O)[C@@H]1O (mixture of isomers) [Compound 34],Serum TNF-α mean,"BALB/c mice [1]; 0.03 mg/kg i.p. before LPS 1 mg/kg i.p., LPS alone 1949",814 pg/mL
same,Serum MIP-1α mean,"BALB/c mice [1]; 0.03 mg/kg i.p. before LPS 1 mg/kg i.p., LPS alone 2544",1182 pg/mL
same,LPS-induced increase in TNF-α and MIP-1α,BALB/c mice [1]; 0.03 mg/kg or 0.1 mg/kg i.p.,dose-dependently reduces
same,Serum TNF-α mean,"BALB/c mice [1]; 0.1 mg/kg i.p. before LPS 1 mg/kg i.p., LPS alone 1949",552 pg/mL
same,Serum MIP-1α mean,"BALB/c mice [1]; 0.1 mg/kg i.p. before LPS 1 mg/kg i.p., LPS alone 2544",981 pg/mL
same,"inflammatory cell infiltration into the BAL fluid, reduction","BALB/c mice [2]; 5 μg per mouse i.p. after OVA aerosol, BAL about 18 hours after treatment, treated vs. control animals, p<0.01",70±19%
same,"MIP-1α levels, reduction relative to control",BALB/c mice [2]; [3],74%
same,"TNF-α levels, reduction relative to control",BALB/c mice [2]; [3],30%
same,"white blood cell counts, reduction relative to control",BALB/c mice [2]; [3],70%
same,MIP-1α,"BALB/c mice [2]; BAL fluid, 5 μg per mouse i.p., untreated mice 58 ± 19",15 ± 5 pg/mL
same,TNF-α,"BALB/c mice [2]; BAL fluid, 5 μg per mouse i.p., untreated mice 81 ± 27",56 ± 18 pg/mL
CCNC(=O)[C@H]1O[C@@H](n2cnc3c(N)nc(N/N=C/[C@H]4CCC=CO4)nc32)[C@H](O)[C@@H]1O [Compound 43],MPO levels in the treated right ears,"mice; 0.1% and 0.3% topical, compared to TPA and normal saline",decreased
same,elevated weight in the right ear caused by the TPA-induced dermatitis,"mice; 0.1% and 0.3% topical, compared to animals receiving normal saline only",reduced in a dose-dependent fashion
same,Right ear (treated) Mean Weight,mice; 0.1% in normal saline,17.7 mg
same,Right ear (treated) MPO,mice; 0.1% topical,1.04 ug/sample
same,Difference (right minus left ear weight),mice; 0.1% topical,5.3 mg
same,Difference (MPO right minus left ear),mice; 0.1% topical,0.67
same,Right ear (treated) Mean Weight,mice; 0.3% in normal saline,13.6 mg
same,Right ear (treated) MPO,mice; 0.3% topical,3.34 ug/sample
same,Difference (right minus left ear weight),mice; 0.3% topical,0.1 mg
same,Difference (MPO right minus left ear),mice; 0.3% topical,1.65
same,Left ear (untreated) MPO,mice; [4],0.37 ug/sample
same,Left ear (untreated) Mean Weight,mice; [4],12.4 mg
same,Left ear (untreated) MPO,mice; [5],1.69 ug/sample
same,Left ear (untreated) Mean Weight,mice; [5],13.5 mg
CNC(=O)[C@H]1O[C@@H](n2cnc3c(NC)nc(C#N)nc32)[C@H](O)[C@@H]1O [Compound 54],Serum MIP-1α mean,"BALB/c mice [1]; 0.3 mg/kg i.p. before LPS 1 mg/kg i.p., LPS alone 4150",4298 pg/mL
same,Serum TNF-α mean,"BALB/c mice [1]; 0.3 mg/kg i.p. before LPS 1 mg/kg i.p., LPS alone 9741",5733 pg/mL
same,LPS-induced increase in TNF-α and MIP-1α,BALB/c mice [1]; 0.3 mg/kg or 1.0 mg/kg i.p.,dose-dependently reduces
same,Serum MIP-1α mean,"BALB/c mice [1]; 1.0 mg/kg i.p. before LPS 1 mg/kg i.p., LPS alone 4150",3906 pg/mL
same,Serum TNF-α mean,"BALB/c mice [1]; 1.0 mg/kg i.p. before LPS 1 mg/kg i.p., LPS alone 9741",3727 pg/mL
same,colon shortening,"Swiss Webster mice; 0.1, 0.3 or 1 mg/kg/day, compared to animals treated with vehicle",protected against colon shortening
same,levels of MDA and MPO,"Swiss Webster mice; 0.1, 0.3 or 1 mg/kg/day, dose-dependent, compared to animals treated with vehicle",lowered
same,visual score (1-4) of colon damage,Swiss Webster mice; Dose 0.1 mg/ml,1.5
same,Colon Length,Swiss Webster mice; Dose 0.1 mg/ml,4.95 cm
same,visual score (1-4) of colon damage,Swiss Webster mice; Dose 0.3 mg/ml,1.2
same,Colon Length,Swiss Webster mice; Dose 0.3 mg/ml,5.51 cm
same,visual score (1-4) of colon damage,Swiss Webster mice; Dose 1 mg/ml,1.4
same,Colon Length,Swiss Webster mice; Dose 1 mg/ml,5.87 cm
same,MDA,Swiss Webster mice; Dose 0.1 mg/ml,7.4 nmol/mg protein
same,MPO,Swiss Webster mice; Dose 0.1 mg/ml,345 mμ/mg protein
same,MDA,Swiss Webster mice; Dose 0.3 mg/ml,7.4 nmol/mg protein
same,MPO,Swiss Webster mice; Dose 0.3 mg/ml,138 mμ/mg protein
same,MDA,Swiss Webster mice; Dose 1 mg/ml,4.4 nmol/mg protein
same,MPO,Swiss Webster mice; Dose 1 mg/ml,30 mμ/mg protein
